Source: ChEMBL document CHEMBL5154839, “Discovery of a selective and covalent small-molecule inhibitor of BFL-1 protein that induces robust apoptosis in cancer cells” (Eur J Med Chem, 2022)
Values belong to the compound of their own block, whether it stands above or below them.

Key:
Bcl-2-related protein A1 [1] = molecular target: T1, Bcl-2-related protein A1 (Homo sapiens, UniProt Q16548); assay: Displacement of fluorescein tagged BID BH3 peptide from His-tagged recombinant BFL-1 (1 to 151 residues) (unknown origin) expressed in Escherichia coli BL21 (DE3) assessed as inhibition constant incubated for 24 hrs by fluorescence polarization-based competitive binding assay
T1 sequence (Q16548 whole entry): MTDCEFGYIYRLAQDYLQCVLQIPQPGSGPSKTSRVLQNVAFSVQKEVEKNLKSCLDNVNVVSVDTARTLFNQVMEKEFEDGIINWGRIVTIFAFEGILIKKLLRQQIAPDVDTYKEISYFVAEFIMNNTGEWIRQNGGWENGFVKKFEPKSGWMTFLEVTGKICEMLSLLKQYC

[2] = molecular target: Induced myeloid leukemia cell differentiation protein Mcl-1 (Homo sapiens, UniProt Q07820); assay: Displacement of fluorescent-labeled BID-BH3 peptide from His-tagged human MCL-1 expressed in Escherichia coli BL21 (DE3) assessed as inhibition constant by fluorescence polarization-based competitive binding assay
Bcl-2-like protein 2 = Bcl-2-like protein 2 (Homo sapiens, UniProt Q92843); assay: Displacement of fluorescent-labeled BID-BH3 peptide from human BCL-W expressed in Escherichia coli BL21 (DE3) assessed as inhibition constant by fluorescence polarization-based competitive binding assay
Bcl-2-like protein 1 = Bcl-2-like protein 1 (Homo sapiens, UniProt Q07817); assay: Displacement of fluorescent-labeled BID-BH3 peptide from human BCL-xL expressed in Escherichia coli BL21 (DE3) assessed as inhibition constant by fluorescence polarization-based competitive binding assay
Bcl-2-related protein A1 [3] = molecular target: T1, Bcl-2-related protein A1; assay: Displacement of fluorescent-labeled BID-BH3 peptide from His-tagged human BFL-1 (1 to 151 residues) expressed in Escherichia coli BL21 (DE3) assessed as inhibition constant by fluorescence polarization-based competitive binding assay
[4] = molecular target: Apoptosis regulator Bcl-2 (Homo sapiens, UniProt P10415); assay: Displacement of fluorescent-labeled BID-BH3 peptide from human BCL-2 expressed in Escherichia coli BL21 (DE3) assessed as inhibition constant by fluorescence polarization-based competitive binding assay
U-937 [5] = assay: Induction of apoptosis in human U-937 cells assessed as necrotic cells at 60 uM measured after 4 hrs by Annexin PI staining based flow cytometry method (reference value: 0.00 %); format: functional
U-937 [6] = assay: Induction of apoptosis in human U-937 cells assessed as late apoptotic cells at 20 uM measured after 4 hrs by Annexin PI staining based flow cytometry method (reference value: 1.62 %); format: functional
Raji = assay: Growth inhibition of human Raji cells incubated for 4 days by WST assay; format: functional, cell-based; conditions: 96 h
K562 = assay: Growth inhibition of human K562 cells incubated for 4 days by WST assay; format: functional, cell-based; conditions: K562, 96 h
U-937 [7] = assay: Induction of apoptosis in human U-937 cells assessed as necrotic cells at 40 uM measured after 4 hrs by Annexin PI staining based flow cytometry method (reference value: 0.00 %); format: functional
RPMI-8226 = assay: Growth inhibition of human RPMI-8226 cells incubated for 4 days by WST assay; format: functional, cell-based; conditions: RPMI-8226, 96 h
U-937 [8] = assay: Induction of apoptosis in human U-937 cells assessed as early apoptotic cells at 20 uM measured after 4 hrs by Annexin PI staining based flow cytometry method (reference value: 1.95 %); format: functional
U-937 [9] = assay: Induction of apoptosis in human U-937 cells assessed as late apoptotic cells at 60 uM measured after 4 hrs by Annexin PI staining based flow cytometry method (reference value: 1.62 %); format: functional
U-937 [10] = assay: Induction of apoptosis in human U-937 cells assessed as early apoptotic cells at 10 uM measured after 4 hrs by Annexin PI staining based flow cytometry method (reference value: 1.95 %); format: functional
U-937 [11] = assay: Induction of apoptosis in human U-937 cells assessed as late apoptotic cells at 40 uM measured after 4 hrs by Annexin PI staining based flow cytometry method (reference value: 1.62 %); format: functional
[12] = Displacement of fluorescein tagged BID BH3 peptide from His-tagged recombinant BFL-1 (1 to 151 residues) C55A mutant (unknown origin) expressed in Escherichia coli BL21 (DE3) assessed as inhibition constant incubated for 24 hrs by fluorescence polarization-based competitive binding assay; set-up: species or system Homo sapiens
MV4-11 = assay: Growth inhibition of human MV4-11 cells incubated for 4 days by WST assay; format: functional, cell-based; conditions: MV4-11, 96 h
U-937 [13] = assay: Growth inhibition of human U-937 cells incubated for 4 days by WST assay; format: functional, cell-based; conditions: U-937, 96 h
U-937 [14] = assay: Induction of apoptosis in human U-937 cells assessed as early apoptotic cells at 60 uM measured after 4 hrs by Annexin PI staining based flow cytometry method (reference value: 1.95 %); format: functional
HL-60 = assay: Growth inhibition of human HL-60 cells incubated for 4 days by WST assay; format: functional, cell-based; conditions: HL-60, 96 h
MM1.S = assay: Growth inhibition of human MM1.S cells incubated for 4 days by WST assay; format: functional, cell-based; conditions: 96 h
Kasumi 1 = assay: Growth inhibition of human Kasumi 1 cells incubated for 4 days by WST assay; format: functional, cell-based; conditions: Kasumi 1, 96 h
U-937 [15] = assay: Induction of apoptosis in human U-937 cells assessed as early apoptotic cells at 40 uM measured after 4 hrs by Annexin PI staining based flow cytometry method (reference value: 1.95 %); format: functional
U-937 [16] = assay: Induction of apoptosis in human U-937 cells assessed as necrotic cells at 20 uM measured after 4 hrs by Annexin PI staining based flow cytometry method (reference value: 0.00 %); format: functional
U-937 [17] = assay: Induction of apoptosis in human U-937 cells assessed as late apoptotic cells at 10 uM measured after 4 hrs by Annexin PI staining based flow cytometry method (reference value: 1.62 %); format: functional
U-937 [18] = assay: Induction of apoptosis in human U-937 cells assessed as necrotic cells at 10 uM measured after 4 hrs by Annexin PI staining based flow cytometry method (reference value: 0.00 %); format: functional
Bcl-2-related protein A1 [19] = molecular target: T1, Bcl-2-related protein A1
Description: Inhibition of His-tagged human BFL-1(1 to 151 residues) expressed in Escherichia coli BL21 (DE3) by fluorescence polarization-based binding assay

Chain of Apoptosis regulator Bcl-2 (P10415 whole entry): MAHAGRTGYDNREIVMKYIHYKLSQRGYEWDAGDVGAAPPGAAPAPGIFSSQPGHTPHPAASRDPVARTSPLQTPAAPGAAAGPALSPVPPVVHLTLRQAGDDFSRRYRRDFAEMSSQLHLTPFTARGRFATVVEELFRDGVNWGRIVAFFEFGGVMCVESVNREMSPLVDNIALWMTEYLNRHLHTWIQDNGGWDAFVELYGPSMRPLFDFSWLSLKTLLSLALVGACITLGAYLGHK
Chain of Induced myeloid leukemia cell differentiation protein Mcl-1 (Q07820 whole entry): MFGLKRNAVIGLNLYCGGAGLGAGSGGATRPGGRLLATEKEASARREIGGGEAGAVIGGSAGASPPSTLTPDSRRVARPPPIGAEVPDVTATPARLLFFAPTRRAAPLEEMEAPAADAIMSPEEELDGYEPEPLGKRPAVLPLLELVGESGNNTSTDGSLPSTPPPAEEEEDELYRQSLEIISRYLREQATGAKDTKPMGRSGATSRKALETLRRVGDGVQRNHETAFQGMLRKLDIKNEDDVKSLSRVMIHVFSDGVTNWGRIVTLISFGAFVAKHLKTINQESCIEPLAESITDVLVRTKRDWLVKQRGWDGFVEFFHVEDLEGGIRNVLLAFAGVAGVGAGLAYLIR
Chain of Bcl-2-like protein 2 (Q92843 whole entry): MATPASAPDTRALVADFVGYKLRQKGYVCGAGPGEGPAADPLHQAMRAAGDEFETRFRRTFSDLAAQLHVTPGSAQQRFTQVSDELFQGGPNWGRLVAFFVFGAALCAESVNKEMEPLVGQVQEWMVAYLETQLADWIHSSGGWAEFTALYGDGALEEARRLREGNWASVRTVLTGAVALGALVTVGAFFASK
Chain of Bcl-2-like protein 1 (Q07817 whole entry, the tested form may be a part): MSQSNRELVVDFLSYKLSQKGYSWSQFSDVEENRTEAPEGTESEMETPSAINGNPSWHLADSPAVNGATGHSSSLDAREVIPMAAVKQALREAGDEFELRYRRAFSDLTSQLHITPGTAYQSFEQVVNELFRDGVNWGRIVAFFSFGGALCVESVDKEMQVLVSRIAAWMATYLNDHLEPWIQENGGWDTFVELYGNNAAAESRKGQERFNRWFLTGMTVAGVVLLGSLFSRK

SMILES: CC1(C)CCC(CN2CCN(c3ccc(C(=O)NS(=O)(=O)c4ccc(NCC5CCOCC5)c([N+](=O)[O-])c4)c(Oc4cnc5[nH]ccc5c4)c3)CC2)=C(c2ccc(Cl)cc2)C1 [VENETOCLAX]
Ki [2]: > 0.444 µM

SMILES: CN1CCN(C2=C(Cl)C(=O)N(c3ccc(Cl)c(Cl)c3)C2=O)CC1
Ki (Bcl-2-like protein 2): 12.5 µM
Ki (Bcl-2-like protein 1): 50 µM
Ki (Bcl-2-related protein A1 [3]): 0.4 µM
Ki [4]: 12.5 µM

SMILES: CSc1ccc(C(Nc2ccccn2)c2c(C)[nH]c3ccccc23)cc1 (stereo not given)
Ki (Bcl-2-related protein A1 [3]): 2.9 µM
Ki [4]: 12.9 µM

SMILES: C=CC(=O)N1CCN(c2c3ccc(-c4cccc(F)c4)cc3nn2CCCOC)CC1
Ki (Bcl-2-related protein A1 [1]): > 100 µM

SMILES: COc1cccc(Cn2nc3cc(-c4cccc(F)c4)ccc3c2N2CCNCC2)c1
Ki (Bcl-2-related protein A1 [1]): 3.01 µM

SMILES: C=CC(=O)N1CCN(c2c3ccc(-c4cccc(F)c4)cc3nn2CCCN(C)C)CC1
Ki (Bcl-2-related protein A1 [1]): 18.1 µM

SMILES: CCC(=O)N1CCN(c2c3ccc(-c4cccc(F)c4)cc3nn2Cc2ccccc2)CC1
Activity (U-937 [5]): 0.03%
Activity (U-937 [6]): 1.8%
IC50 (Raji): 48.2 µM
IC50 (K562): 10.4 µM
Activity (U-937 [7]): 0.03%
Ki (Bcl-2-related protein A1 [1]): 24.1 µM
IC50 (RPMI-8226): 11.8 µM
Activity (U-937 [8]): 2.79%
Activity (U-937 [9]): 2.06%
Activity (U-937 [10]): 1.96%
Activity (U-937 [11]): 1.57%
Ki [12]: > 200 µM
IC50 (MV4-11): 8.9 µM
IC50 (U-937 [13]): 9.3 µM
Activity (U-937 [14]): 3.65%
IC50 (HL-60): 28.9 µM
IC50 (MM1.S): 16.8 µM
IC50 (Kasumi 1): 7.1 µM
Activity (U-937 [15]): 3.14%
Activity (U-937 [16]): 0.05%
Activity (U-937 [17]): 2.02%
Activity (U-937 [18]): 0.16%

SMILES: CC(=O)NC(Cc1c[nH]c2ccccc12)C(=O)NCCSSCCN(C)C (stereo not given)
IC50 (Bcl-2-related protein A1 [19]): 1.3 µM

SMILES: CC(C)(C)c1ccc(CN2CCN(S(=O)(=O)Nc3ccc(SCCc4ccccc4)cc3C(=O)O)CC2)cc1
IC50 (Raji): 51.5 µM
IC50 (K562): 18.9 µM
IC50 (RPMI-8226): 21.3 µM
Ki [12]: 2.28 µM
IC50 (MV4-11): 20.8 µM
IC50 (U-937 [13]): 19.9 µM
IC50 (HL-60): 32.8 µM
IC50 (MM1.S): 32.6 µM
IC50 (Kasumi 1): 20.3 µM

SMILES: C=CC(=O)N1CCN(c2c3ccc(-c4cccc(F)c4)cc3nn2CCC(C)(C)C)CC1
Ki (Bcl-2-related protein A1 [1]): > 100 µM

Other lines, results leading:

Ki (Bcl-2-related protein A1 [1]): > 100 µM
SMILES: C=CC(=O)N1CCN(c2c3ccc(-c4cccc(F)c4)cc3nn2Cc2cccc(C(=O)O)c2)CC1

Ki (Bcl-2-related protein A1 [1]): > 100 µM
SMILES: C=CC(=O)N1CCN(c2c3ccc(-c4cccc(F)c4)cc3nn2Cc2ccc(C(=O)O)cc2)CC1

Ki (Bcl-2-related protein A1 [1]): 1.13 µM
SMILES: C=CC(=O)N1CCN(c2c3ccc(-c4cccc(F)c4)cc3nn2CCC)CC1

Ki (Bcl-2-related protein A1 [1]): > 100 µM
SMILES: C=CC(=O)N1CCN(c2c3ccc(-c4cccc(F)c4)cc3nn2Cc2ccc(OC)cc2)CC1

Ki (Bcl-2-related protein A1 [1]): 10.2 µM
SMILES: C=CC(=O)N1CCN(c2c3ccc(-c4cccc(F)c4)cc3nn2Cc2ccc(O)cc2)CC1

Ki (Bcl-2-related protein A1 [1]): > 100 µM
SMILES: C=CC(=O)N1CCN(c2c3ccc(-c4cccc(F)c4)cc3nn2Cc2ccc(Cl)cc2)CC1

Ki (Bcl-2-related protein A1 [1]): 2.85 µM
SMILES: C=CC(=O)N1CCN(c2c3ccc(-c4cccc(F)c4)cc3nn2CC)CC1

Ki (Bcl-2-related protein A1 [1]): 3.23 µM
SMILES: C=CC(=O)N1CCN(c2c3ccc(-c4cccc(F)c4)cc3nn2Cc2ccc(C#N)cc2)CC1

Ki (Bcl-2-related protein A1 [1]): 2.41 µM
SMILES: C=CC(=O)N1CCN(c2c3ccc(-c4cccc(F)c4)cc3nn2CCCO)CC1

Ki (Bcl-2-related protein A1 [1]): 3.34 µM
SMILES: C=CC(=O)N1CCN(c2c3ccc(-c4cccc(F)c4)cc3nn2Cc2cccc(C#N)c2)CC1

Ki (Bcl-2-related protein A1 [1]): 18.4 µM
SMILES: C=CC(=O)N1CCN(c2c3ccc(-c4cccc(F)c4)cc3nn2Cc2cccc(O)c2)CC1

Ki (Bcl-2-related protein A1 [1]): > 100 µM
SMILES: C=CC(=O)N1CCN(c2c3ccc(-c4cccc(F)c4)cc3nn2Cc2cccc(Cl)c2)CC1
